From patent US20060229347A1, “Treatment of eczemas” (Astion Development A/S, priority 2005, published 2006) come the findings set out here.

Each structure is given as a SMILES string. Structures can show the parent of a compound that is named as a salt.

Data set [1] relates to oxazolone induced ear inflammation. Briefly: Oxazolone induced Mouse Ear Oedema Assay. It is filed as in vivo, mice. The conditions noted are these: for % inhibition of ear swelling: 24 hours; for inhibition of the formation of ear oedema: Example 7, 500 μg/ear dissolved in 96% ethanol. The procedure:
Screening for Anti-inflammatory Effect in the Oxazolone induced Mouse Ear Oedema Assay. […] This screening method is commonly employed for screening and evaluation of anti-inflammatory drugs, in particular with respect to the inflammation seen in contact dermatitis. Betamethasone-17 valerate was used as the positive control. […] Betamethason was administered topically in quantities of 20 μg/ear. Betamethason was applied in the commercial form Celeston valerate® 0.1%. All groups were immunised with 20 μl oxazolone, 1.6% in ethanol 96% (w/v) on the left and the right ear. The ear thickness of all mice on both the left and right side was measured with an electronic measuring gauge. All groups were challenged with 20 μl oxazolone (1.6% in ethanol 96% (w/v)) on the left ear and the right ear. Vehicle (acetone) or test article solutions were administered 20 minutes before and 20 minutes after oxazolone challenge. 24 hours after oxazolone challenge the ear thickness of all mice was measured with an electronic measuring gauge. Mean thickness of the ears and standard deviations were calculated. Ear swelling was calculated as the difference between the ear thickness day 7 and day 8. […] Differences in ear swelling between the vehicle treated group and the other groups were tested for significance employing a non-parametric statistical method of analysis, the Mann-Whitney U test. The required level of significance was p<0.05. […] Both test articles were applied in a dose of 500 μg/ear and dissolved in 96% ethanol. Betamethason, as the positive control was administered topically in quantities of 20 μg/ear.

The target of data set [2] is T1, Protein Tyrosine Kinase, SYK (Homo sapiens, UniProt P43405).
T1 construct: purchased MDS Pharma Service (contract assay) 155761
Kind of data set: Protein Tyrosine Kinase SYK enzyme inhibition assay (MDS Pharma Service No. 155761). The following applies: in comparison to Oxaprozin. It is filed as biochemical. The text has this: The term “an inhibitor of Protein tyrosine kinase Syk” refers to any agent that inhibits the catalytic activity of Protein tyrosine kinase Syk in vitro. Such in vitro assays are described in Shichijo M, Yamamoto N, Tsujishita H, Kimata M, Nagai H, Kokubo T. Inhibition of syk activity and degranulation of human mast cells by flavonoids. Biol Pharm Bull 2003 December; 26(12):1685-90 and in Zhang J, Berenstein E, Siraganian R P. Phosphorylation of Tyr342 in the linker region of Syk is critical for Fc epsilon RI signalling in mast cells. Mol Cell Biol 2002 December; 22(23):8144-54. The inhibitory activity of Protein Tyrosine Kinase SYK may be determined at MDS Pharma Service using test method number 155761.
(§1) The enzyme assays were conducted by MSD Pharma Services.

Data set [3] has as its target T2, Protein Tyrosine Kinase, ZA70 (ZAP-70) (Homo sapiens, UniProt P43403).
T2 construct: purchased MDS Pharma Service (contract assay) 155987
T2 sequence (P43403 1-619): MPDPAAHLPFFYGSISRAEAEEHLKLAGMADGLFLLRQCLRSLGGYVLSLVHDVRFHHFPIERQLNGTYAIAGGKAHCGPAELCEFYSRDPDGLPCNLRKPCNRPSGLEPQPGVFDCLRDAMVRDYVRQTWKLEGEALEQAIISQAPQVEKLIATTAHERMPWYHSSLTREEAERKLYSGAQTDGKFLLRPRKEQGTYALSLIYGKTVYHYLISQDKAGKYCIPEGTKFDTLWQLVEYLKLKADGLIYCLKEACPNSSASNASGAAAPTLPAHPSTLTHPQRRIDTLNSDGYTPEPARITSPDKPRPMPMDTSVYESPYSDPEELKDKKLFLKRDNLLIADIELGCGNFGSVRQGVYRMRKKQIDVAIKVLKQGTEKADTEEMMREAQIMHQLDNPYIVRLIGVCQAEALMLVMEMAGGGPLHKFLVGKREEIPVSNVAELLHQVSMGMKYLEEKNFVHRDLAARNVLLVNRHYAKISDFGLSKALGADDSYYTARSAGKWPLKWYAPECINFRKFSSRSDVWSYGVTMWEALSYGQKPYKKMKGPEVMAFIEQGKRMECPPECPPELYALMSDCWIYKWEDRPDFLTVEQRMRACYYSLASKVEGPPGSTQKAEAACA
Kind of data set: Protein Tyrosine Kinase ZA70 (ZAP-70) enzyme inhibition assay (MDS Pharma Service No. 155987). It is filed as biochemical. The conditions noted are these: in comparison to Oxaprozin.
Text: The term “an inhibitor of Protein tyrosine kinase ZAP-70” refers to any agent that inhibits the catalytic activity of the Protein tyrosine kinase ZAP-70 in vitro as may be determined using a method described in Huckle W R, Dy R C, Earp H S. Calcium-dependent increase in tyrosine kinase activity stimulated by angiotensin II. Proc Natl Acad Sci USA 1992 Sep. 15; 89(18):8837-41 and in Isakov N, Wange R L, Watts J D, Aebersold R, Samelson L E. Purification and characterization of human ZAP-70 protein-tyrosine kinase from a baculovirus expression system. J Biol Chem 1996 Jun. 28; 271(26):15753-61. The inhibitory activity of Protein Tyrosine Kinase ZAP may be determined at MDS Pharma Service using test method number 155987.
as §1

The test system of data set [4] is Phosphodiesterase PDE IV. Kind of data set: Phosphodiesterase PDE IV enzyme inhibition assay (MDS Pharma Service No. 154000). Type of data set: biochemical. The conditions noted are these: in comparison to Oxaprozin. How it is done: Trends Pharmacol Sci 1991 January; 12(1):19-27 and in Cortijo J, Bou J, Beleta J, Cardelus I, Llenas J, Morcillo E et al. Investigation into the role of phosphodiesterase IV in bronchorelaxation, including studies with human bronchus. Br J Pharmacol 1993 February; 108(2):562-8. The inhibitory activity of Phosphodiesterase PDE IV may be determined at MDS Pharma Service using test method number 154000.
as §1

Data set [5] has as its system skin. The following applies: guinea pig, in vivo. How it is done:
17th, 1992, and the test method B.6 of the 96/54 E.E.C Directive.
Albino guinea pigs of Dunkin-Hartley strain were exposed to the test item after an acclimatisation period of at least five days.
The Maximum Non Necrotizing Concentration (M.N.N.C.) was determined by injecting by intradermal route the following concentrations: 2.5%, 1.25%, 0.625%, 0.3125%, 0.1562% and 0.078% diluted in physiological saline solution.
Pre-Maximum Non Irritant Concentration (pre-M.N.I.C.) was determined by application of the test item under an occlusive dressing during 24 hours, at the following concentrations: 2.5%, 1.25%, 0.625%, 0.3125% diluted in physiological saline solution.
Maximum Non Irritant Concentration (M.N.I.C.) was determined by initially establishing an induction phase by intradermal injection with a physiological saline solution and by topical application of distilled water followed by a 18-day rest phase. In the challenge phase where the test item is under occlusive dressing for 24 hours, the test item was applied to the skin of the Albino guinea pigs at the following concentrations: 2.5%, 1.25%, 0.625%, 0.3125% diluted in physiological saline solution.

Data set [6] has as its system undamaged skin. Briefly: Acute dermal irritation. It is filed as in vivo. The conditions noted are these: monoethanolamine salt 5% by weight in water, 0.5 mL patch; reading time 1 hour. The procedure: The sample was applied at a dose of 0.5 mL, on an undamaged skin area of the right flank of each animal. The patch was secured in position with a strip of surgical adhesive tape.
On the left flank an untreated area served as the control.
The skin reactions were evaluated after 1 hour and then after 24, 48 and 72 hours following removal of the patch according to the following grading scale:
Erythema (0: No erythema, 1: Slight(barelyperceptible)erythema, 2: Definite erythema, 3: Moderate to severe erythema, 4: Severe erythema (purple) with formation of eschars (deep lesions) preventing erythema from being grading).
Oedema (0: No oedema, 1: Very slight (barely perceptible) oedema, 2: Slight oedema (contour clearly defined), 3: Moderate oedema (thickness), 4: Severe oedema (thickness greater than 1 mm, surface larger than zone of application)

With `CCCCC(=O)O[C@]1(C(=O)CO)[C@@H](C)C[C@H]2[C@@H]3CCC4=CC(=O)C=C[C@]4(C)[C@@]3(F)[C@@H](O)C[C@@]21C` [Betamethasone 17-valerate], the “% inhibition of ear swelling” value in data set [1] (20 μg/ear topical, Celeston valerate 0.1%) was found to be 66%.

On to `CCCCOc1ccc(CC(=O)NO)cc1` [Bufexamac], for which, in data set [2], the “inhibitory effect on Protein Tyrosine Kinase SYK” value is “only exhibits inhibitory effect on the PDE-IV enzyme”. For the same compound, the “inhibition of the formation of ear oedema” value in data set [1] is “did not inhibit the formation of ear oedema at all”. Also, in data set [3], the “inhibitory effect on Protein Tyrosine Kinase ZAP-70” value was “only exhibits inhibitory effect on the PDE-IV enzyme”. In addition, in data set [4], the “inhibitory effect on the PDE-IV enzyme” value is on record as “exhibits inhibitory effect”.

Regarding `O=C(O)CCc1nc(-c2ccccc2)c(-c2ccccc2)o1` [Oxaprozin monoethanolamine salt], the “% inhibition of ear swelling” value worked out at 53% in data set [1] (250 μg/ear topical in acetone, 20 min before and after oxazolone challenge); 77% in data set [1] (500 μg/ear topical in acetone, 20 min before and after oxazolone challenge); 95% in data set [1] (1000 μg/ear topical in acetone, 20 min before and after oxazolone challenge). For the same compound, the “inhibition of ear swelling (conclusion)” value in data set [1] (250-1000 μg/ear) was “dose dependent and highly significant inhibition of ear swelling”. In addition, in data set [1] (highest dose (1000 μg/ear) vs Betamethasone 17-valerate 20 μg/ear), the “inhibition of ear swelling compared with Betamethasone 17-valerate” value is reported as “significantly stronger”. Moreover, in data set [5], the “skin sensitization (cutaneous reactions attributable to allergy)” value is on record as “not causing sensitization reactions”.

Take `O=C(O)CCc1nc(-c2ccccc2)c(-c2ccccc2)o1` [Oxaprozin, 4,5-diphenyl-2-oxazole-propionic acid]: in data set [1], the “inhibition of the formation of ear oedema” value is on record as “statistically significant inhibition of the formation of ear oedema”. Also, in data set [6], the “cutaneous reactions (erythema)” value is “slight erythema”.
